Several values for one entry are separate records, joined by “and”; a condition that tells them apart may be missing. Identical values can stand only once. Entries after “also recorded” stand apart in the source; their conditions may differ.
Assays:
[1] = tested on: HUVEC; experiment: Wound assay, migration of human endothelial cells; format: cell-based; conditions: 18 hours; 497C-T2 0.83 and 1.66 μM; 497C-T3 2.4 μM; 497C-T4 3.52 μM; 497C-T5 3.65 μM; C-terminal tail 4.92 μM
Protocol: Cell migration was tested by the wound assay described by Sato and Rifkin (J Cell Biol. 1988; 107:1199) with few modifications. HUVEC grown in growth medium EGM-2MV (Cambrex) were seeded in 24-well plates at 80 000 cells per well in 500 μL of growth medium and grown to confluence at 37° C. in a humidified atmosphere containing 5% CO2. Cells were scrapped with a plastic tip on one line only. After wounding, the culture medium was changed for fresh medium (control, FIG. 3a) or fresh medium supplemented with: • FIG. 3b: 497C-T2 20 μg/mL (0.83 μM) • FIG. 3c: 497C-T2 40 μg/mL (1.66 μM) • FIG. 3d: 497C-T3 48 μg/mL (2.4 μM) • FIG. 3e: 497C-T4 60 μg/mL (3.52 μM) • FIG. 3f: 497C-T5 61 μg/mL (3.65 μM) • FIG. 3g: C-terminal tail 63 μg/mL (4.92 μM)
After 18 hours of culture, cells were observed and photographed under the inverted microscope (Analysis, Olympus, Rungis, France).

[2] = tested on: NCI H460 human tumor; experiment: NCI H460 human tumor xenograft in Swiss Nude mice, tumor growth; format: in vivo; parameters: key to MRTV D28 / MRTV D12 / MRTV D14 / MRTV D16 / MRTV D18 / MRTV D20 / MRTV D22 / MRTV D24 / MRTV D26: ratio of mean tumor volume at day t to volume at injection (D12)
Protocol: NCI H460 cells were cultured as adherent cells in complete RPMI 1640 medium (Ref. CM1RRM08-01, batch No. 623615, Eurobio, France) containing 2 mM L-Glutamine, adjusted to 4.5 g/L glucose (Ref. G7528, batch No. 033K0121, Sigma, France) and supplemented with 10 mM HEPES (Ref. H0887, batch No. 113K2338, Sigma, France), 1.0 mM sodium pyruvate (Ref. CSTVAT00-0U, batch No. 520818, Sigma, France) and 10% fetal calf serum (FCS; Ref. CVFSVF00-01, batch No. S13021, Eurobio, France) under a 37° C., 5% CO2 humidified atmosphere. They were amplified in 75 cm^2-flasks to reach 90×10^6 cells.
At D0, NCI H460 cells (human lung carcinoma) were collected from 75 cm^2-flasks by removing the medium and adding 3 ml of trypsine-EDTA (Ref. CEZTDA00-0U, batch No. 633920, Eurobio, France). After 5 min of incubation at 37° C., cells were detached from the plastic and the enzymatic reaction was stopped by adding 3 ml of RPMI 1640 medium containing 10% fetal calf serum. Cells were then centrifuged at 700 g for 5 min at room temperature. They were resuspended in serum-free RPMI 1640 culture medium containing L-Glutamine (2 mM), glucose (4.5 g/l), sodium pyruvate (1 mM) and buffered with HEPES (10 mM). Cells were counted and the number of viable NCI H460 cells was >99%. The number of cells was then adjusted to 25.10^6 cells/ml in serum-free medium.
NCI H460 cells (5.10^6 cells/mouse in 200 μL of serum-free medium) were then implanted subcutaneously in the right flank of each mouse.
At D12 post-implantation of the NCI H460 cells, the thirty mice were randomized into six groups of 5 mice. Tumor volumes had reached 228 to 468 mm^3 and mean tumor volumes were not statistically different between groups after randomization.
All solutions were injected IP.
Animals have been observed daily.
• Tumor growth curves were drawn using the mean tumor volumes (MTV), • Mean Relative tumor volume (MRTV) was calculated as the ratio between the MTV at time t and the volume at the time of injection (t=D12), • Tumor growth inhibition (T/C, %) was evaluated as the ratio of the median tumor volumes of treated groups versus vehicle group.
Statistical analyses of tumor volumes (V), time to reach ‘V’, tumor-doubling time (DT), relative tumor volume (RTV) and tumor growth inhibition (T/C) were performed for all groups. Data are expressed as mean±SD. Groups of data were normally distributed. Univariate analysis were performed to assess differences between groups. Statistical significance was then determined using the Student's t test. A P<0.05 was considered as statistically significant. The Statistical analysis was performed using XLSTAT (Addinsoft, France).

[3] = tested on: CALU-6 tumors; experiment: CALU-6 non-small cell lung cancer xenograft in Swiss Nude mice, tumor growth; format: in vivo; conditions: IP Q2DX8, CDDP 5 mg/kg (G2), 497C-T2 10 mg/kg (G3), 497C-T2 10 mg/kg + CDDP 5 mg/kg (G4)
Protocol: CALU-6 cells were cultured as adherent cells in complete EMEM medium (Ref. CM1MEM18-01, batch No. 462502, Eurobio, France) 10% fetal calf serum (FCS; Ref. CVFSVF00-01, batch No. 513021, Eurobio, France) under a 37° C., 5% CO2 humidified atmosphere. They were amplified in 75 cm^2-flasks to reach 90×10^6 cells.
At D0, CALU-6 cells (human lung carcinoma) were collected from 75 cm^2-flasks by removing the medium and adding 3 ml of trypsine-EDTA (Ref. CEZTDA00-0U, batch No. 633920, Eurobio, France). After 5 min of incubation at 37° C., cells had detached from the plastic and the enzymatic reaction was stopped by adding 3 ml of EMEM medium containing 10% fetal calf serum. Cells were then centrifuged at 700 g for 5 min at room temperature. They were resuspended in serum-free EMEM culture medium. Cells were counted and viability assessment by Trypan Blue exclusion (Ref. CSTCOL03-OU, batch No. 434511, Eurobio, France). The number of viable CALU-6 cells was >99%. The number of cells was then adjusted to 25×10^6 cells/ml in serum-free medium.
CALU-6 cells 5×10^6 cells/mouse in 200 μl of serum-free medium) were then implanted subcutaneously in the right flank of each mouse.
At D12 post-implantation of the CALU-6 cells, the thirty mice were randomized into six groups of 5 mice. Tumor volumes had reached 228 to 468 mm^3 and mean tumor volumes were not statistically different between groups after randomization.
Mean tumor volumes (MTV), mean relative tumor volume (MRTV) and tumor growth inhibition (T/C) were calculated as for example 7.

[4] = IP Q2DX8, CDDP 5 mg/kg (G2), 497C-T2 10 mg/kg (G3), 497C-T2 10 mg/kg + CDDP 5 mg/kg (G5)

497C-T4: d1, d2 and e domains of the LEL domain of protein 497C, SEQ ID NO:5 (49 amino acids) (IPPSCCMNETDCNPQDLHNLTVAATKVNQKGCYDLVTSFMETNMGIIAG; listed as Homo sapiens)
inhibition of endothelial cell migration [1]: less active than 497C-T2; also recorded: limited activities relative to that of 497C-T2

497C-T5: d2 and e domains of the LEL domain of protein 497C, SEQ ID NO:6 (43 amino acids) (MNETDCNPQDLHNLTVAATKVNQKGCYDLVTSFMETNMGIIAG; listed as Homo sapiens)
inhibition of endothelial cell migration [1]: very limited anti-migratory activity; also recorded: limited activities relative to that of 497C-T2

N.N.[Cl][Pt][Cl] [Cisplatin, cis-diamineplatinum (II) dichloride, reference compound]
reduction of tumor size compared to the vehicle-treated group 1 ([2]; D28, CDDP 5 mg/kg IP Q2DX8 (G2)): 68%
DT (doubling time of tumor volume) [2, 4]: 5.12 ± 2.89 days and 5.12 days
MRTV D14 [2, 4]: 1.59
MRTV D16 [2, 4]: 1.74
MRTV D18 [2, 4]: 2.30
MRTV D20 [2, 4]: 2.29
MRTV D22 [2, 4]: 3.39
MRTV D24 [2, 4]: 3.67
MRTV D26 [2, 4]: 3.67
MRTV D28 [2, 4]: 4.88
MTV at D14 [2, 4]: 513.35 mm^3
MTV at D24 [2, 4]: 1083.74 mm^3
MTV at D28 [2, 4]: 1440±1097 mm^3 and 1440.18 mm^3
MRTV D12 ([2]; reference day, IP Q2DX8, CDDP 5 mg/kg (G2), 497C-T2 10 mg/kg (G3), 497C-T2 10 mg/kg + CDDP 5 mg/kg (G5)): 1.00
MRTV D14 [3]: 3.11
MRTV D16 [3]: 2.39
MRTV D18 [3]: 2.66
MRTV D20 [3]: 3.08
MRTV D22 [3]: 3.70
MRTV D24 [3]: 4.84
MRTV D26 [3]: 4.11
MRTV D28 [3]: 5.98
MTV at D28 [3]: 742.44±215.85 mm^3
MRTV D12 ([3]; reference day): 1

B1: 497C-T3: c, d1, d2 and e domains of the LEL domain of protein 497C, SEQ ID NO:4 (74 amino acids) (protein, listed as Homo sapiens)
chain: QRSLSCCGVQNYTNWSTSPYFLEHGIPPSCCMNETDCNPQDLHNLTVAATKVNQKGCYDLVTSFMETNMGIIAG
inhibition of endothelial cell migration [1]: inhibited cell migration similarly to the protein 497C-T2; also recorded: almost as potent than 497C-T2
